Laboratory results: US8859491B2 (priority 2011, dated 2014)
Non-standard residues stand in square brackets, D forms with d. No end group written: not given here. Aib = CC(C)(N)C(=O)O

Legend:
[1] = Administration of GLP-1 conjugates to diet induced obese mice (FIGS. 3-10, 12); type: in vivo; conditions: for blood glucose levels: FIG. 7b; for change in blood glucose: FIG. 5b, SEQ ID NO: 1647 at high or low doses, SEQ ID NO: 1651 at high dose
[2] = Example 13: db/db mice, daily sc dosing; type: in vivo
Procedure: Mice (db/db, N=6, average initial body weight=54 g) were subcutaneously injected once per day for four weeks with vehicle or 40 or 400 μg/kg of one of the following:
Body weight was measured after 23 days and the change in body weight was determined (FIG. 2a).

[3] = Example 14: DIO mice, daily sc dosing; type: in vivo
Procedure: Diet-induced obesity (DIO) mice (N=8, 6 mice per group, average initial body weight=58 g) were subcutaneously injected once per day for four weeks with vehicle or 4, 40, or 400 μg/kg of one of the following:
A saline solution comprising 25% (v/v) glucose was injected at a dose of 1.5 g/kg of body weight at the 0 min time point on days 7 and 21. Blood glucose was measured at the 0, 15, 30, 60, and 120 min time points on day 7 and day 21 (FIG. 3a).
Body weight was measured after 23 days and the change in body weight, change in fat mass, and change in lean muscle mass were determined (FIGS. 3b-d).

glucocorticoid receptor = biological target: T1, glucocorticoid receptor (Homo sapiens, UniProt P04150); test: EC50
T1 construct: two clones of HeLa cells (ATCC #CCL-2) transfected with murine mammary tumor virus long terminal repeat-driven firefly luciferase; host or cells: HeLa
T1 sequence (P04150 whole entry, looked up): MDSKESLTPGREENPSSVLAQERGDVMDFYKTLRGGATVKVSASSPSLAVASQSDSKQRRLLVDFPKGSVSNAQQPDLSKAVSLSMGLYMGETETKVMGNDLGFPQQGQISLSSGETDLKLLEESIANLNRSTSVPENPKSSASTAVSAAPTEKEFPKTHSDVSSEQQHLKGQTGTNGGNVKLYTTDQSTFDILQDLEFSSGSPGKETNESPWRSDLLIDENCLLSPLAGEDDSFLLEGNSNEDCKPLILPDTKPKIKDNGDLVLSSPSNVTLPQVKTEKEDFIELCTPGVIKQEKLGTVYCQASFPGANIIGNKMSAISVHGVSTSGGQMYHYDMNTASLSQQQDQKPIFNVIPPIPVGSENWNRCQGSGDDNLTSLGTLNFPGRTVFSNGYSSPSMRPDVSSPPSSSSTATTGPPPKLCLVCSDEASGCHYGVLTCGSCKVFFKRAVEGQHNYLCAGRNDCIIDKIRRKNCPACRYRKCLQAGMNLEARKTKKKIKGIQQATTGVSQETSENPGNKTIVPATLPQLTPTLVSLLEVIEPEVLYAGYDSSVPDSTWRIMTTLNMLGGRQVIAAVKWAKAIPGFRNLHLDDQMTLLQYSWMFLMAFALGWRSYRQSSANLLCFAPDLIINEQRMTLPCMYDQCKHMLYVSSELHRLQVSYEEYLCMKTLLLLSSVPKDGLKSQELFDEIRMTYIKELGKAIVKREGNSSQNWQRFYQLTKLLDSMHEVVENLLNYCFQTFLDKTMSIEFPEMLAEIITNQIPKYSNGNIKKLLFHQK

[4] = Example 15: DIO mice, daily sc dosing; type: in vivo; conditions: high dose, between days 0 and 21
Procedure: Diet-induced obesity (DIO) mice (N=8, average initial body weight=59 g) were subcutaneously injected once per day for four weeks with vehicle or one of the following: […] Blood glucose levels were measured at the 0, 15, 30, 60, and 120 min time points. FIG. 4a presents data from this experiment. Body weight was measured after 21 days and the change in total body weight and fat mass were determined (FIGS. 4b-c).

[5] = Administration of GLP-1 conjugates to db/db mice (FIG. 2); type: in vivo; conditions: high dose
[6] = Stability analysis in 100% human plasma (estrogen release); conditions: 1 mg/mL, pH 7.4, 37° C.
[7] = high dose (400 μg/kg-day), after 23 days
[8] = high dose, between days 0 and 14
[9] = high dose, between days 0 and 21, vs GLP-1(Aib2E16Cex K40) (SEQ ID NO: 1647) alone, FIG. 4d
[10] = over a period of 7 days, FIG. 7a

## d-amino acid containing GLP-1/Estrogen ester conjugate: d-amino acid containing GLP-1/Estrogen conjugate, estrogen covalently linked as ester that was unstable in vivo ([dA][Aib][dE]G[dT][dF][dT][dS][dD][dV][dS][dS][dY][dL][dE]G[dQ][dA][dA][dK][dE][dA][dI][dA][dW][dL][dV][dK]GG[dP][dS][dS]G[dA][dP][dP][dP][dS]K-NH2; not fully specified (residue 40))
[1]; FIG. 10a
  total body weight: greatest decrease
[1]; between days 0 and 7, vs comparable d-amino acid peptide with stable estrogen conjugate, FIG. 10b
  change in blood glucose levels: greater change

## GLP-1(Aib^2A^22CexK^40)/Estrogen(17-ester): A22 GLP-1 analog conjugated to estrogen by 17-ester (H[Aib]EGTFTSDVSSYLEGQAAKEAIAWLVKGGPSSGAPPPSK-NH2; not fully specified (residue 40))
[2]; [7]
  change in body weight: greater decrease in body weight then mice that were administered GLP-1 alone
[2]; high dose, 23 days
  cumulative food intake: consumed less food than those that were administered GLP-1 alone
[2]; [8]
  blood glucose levels: greatest decrease in blood glucose levels
[3]; [7]
  change in body weight: greatest decrease in body weight
[3]; high dose, 23 days
  cumulative food intake: consumed the least amount of food
[3]; high dose, after 23 days
  change in fat mass: greatest decrease in body weight and fat mass
  change in lean muscle mass: least amount of lean muscle mass loss
[3]; [8]
  change blood glucose: greatest decrease in blood glucose levels

## CC[C@H](C)[C@H](NC(=O)[C@H](Cc1ccccc1)NC(=O)[C@H](CCC(=O)O)NC(=O)[C@H](CCCCN)NC(=O)[C@H](C)NC(=O)[C@H](C)NC(=O)[C@H](CCC(N)=O)NC(=O)[C@H](CCC(=O)O)NC(=O)[C@H](CCC(=O)O)NC(=O)[C@H](CC(C)C)NC(=O)[C@H](Cc1ccc(O)cc1)NC(=O)[C@H](CO)NC(=O)[C@H](CO)NC(=O)[C@@H](NC(=O)[C@H](CC(=O)O)NC(=O)[C@H](CO)NC(=O)[C@@H](NC(=O)[C@H](Cc1ccccc1)NC(=O)[C@@H](NC(=O)CNC(=O)[C@H](CCC(=O)O)NC(=O)C(C)(C)NC(=O)[C@@H](N)Cc1c[nH]cn1)[C@@H](C)O)[C@@H](C)O)C(C)C)C(=O)N[C@@H](C)C(=O)N[C@@H](Cc1c[nH]c2ccccc12)C(=O)N[C@@H](CC(C)C)C(=O)N[C@H](C(=O)N[C@@H](CCCCN)C(=O)NCC(=O)NCC(=O)N1CCC[C@H]1C(=O)N[C@@H](CO)C(=O)N[C@@H](CO)C(=O)NCC(=O)N[C@@H](C)C(=O)N1CCC[C@H]1C(=O)N1CCC[C@H]1C(=O)N1CCC[C@H]1C(=O)N[C@@H](CO)C(=O)NC(CCSSCCNC(=O)OCC(=O)[C@@]1(O)[C@H](C)C[C@H]2[C@@H]3CCC4=CC(=O)C=C[C@]4(C)[C@@]3(F)[C@@H](O)C[C@@]21C)C(N)=O)C(C)C (stereo partly drawn) [[Aib2, E16]GLP-1-CEX-homoCys40(S—SCH2CH2NHCO—O-DEX)]
Glucocorticoid receptor
  EC50: 65.4 µM

## GLP-1(Aib^2E^16K^40Cex)/Estrogen(17-ester) (H[Aib]EGTFTSDVSSYLEEQAAKEFIAWLVKGGPSSGAPPPSK-NH2; not fully specified (residue 40)) [SEQ ID NO: 1655]
[4]
  change in blood glucose levels: greater change in blood glucose levels
[1]; between days 0 and 7, FIG. 6c
  change in blood glucose levels: greatest change
[1]; [9]
  change in blood glucose levels: greater change
[1]; [10]
  total body weight: greatest decrease
[1]; over a period of 7 days
  blood glucose levels: greatest decrease

## GLP-1(Aib^2E^16Cex K^40)/Estrogen(3-ester) (H[Aib]EGTFTSDVSSYLEEQAAKEFIAWLVKGGPSSGAPPPSK-NH2; not fully specified (residue 40)) [SEQ ID NO: 1658]
[1]; between days 0 and 7, FIG. 8b
  change in blood glucose levels: greatest change

## GLP-1(Aib^2E^16Cex K^40) (H[Aib]EGTFTSDVSSYLEEQAAKEFIAWLVKGGPSSGAPPPSK-NH2) [SEQ ID NO: 1647]
[1]
  change in blood glucose: greatest change

## GLP-1(Aib^2E^16K^40Cex)/Estrogen(3-ether) (H[Aib]EGTFTSDVSSYLEEQAAKEFIAWLVKGGPSSGAPPPSK-NH2; not fully specified (residue 40)) [SEQ ID NO: 1651]
[4]
  change in blood glucose levels: greater change in blood glucose levels
[1]
  change in blood glucose: greatest change
[1]; between days 0 and 7, FIG. 6c
  change in blood glucose levels: greatest change
[1]; [9]
  change in blood glucose levels: greater change
[1]; [10]
  total body weight: greatest decrease
[1]; over a period of 7 days
  blood glucose levels: greatest decrease

## GLP-1(Aib^2A^22CexK^40)/Estrogen(17-ester) (H[Aib]EGTFTSDVSSYLEGQAAKEAIAWLVKGGPSSGAPPPSK-NH2; not fully specified (residue 40)) [SEQ ID NO: 1656]
[5]; FIG. 2a
  change in body weight: slightly greater decrease in body weight than mice that were administered GLP-1 alone, but similar to vehicle
[5]; between days 0 and 14, FIGS. 2b and 2c
  blood glucose levels: greatest decrease
[1]; high dose, FIG. 3b
  change in body weight: greatest decrease
[1]; high dose, FIG. 3c
  change in fat mass: greatest decrease
[1]; high dose, FIG. 3d
  change in lean muscle mass: least amount of change
[1]; high dose, between days 0 and 14, FIG. 3e
  changes in blood glucose: greatest decrease

## CC[C@H](C)[C@H](NC(=O)[C@H](Cc1ccccc1)NC(=O)[C@H](CCC(=O)O)NC(=O)[C@H](CCCCN)NC(=O)[C@H](C)NC(=O)[C@H](C)NC(=O)[C@H](CCC(N)=O)NC(=O)[C@H](CCC(=O)O)NC(=O)[C@H](CCC(=O)O)NC(=O)[C@H](CC(C)C)NC(=O)[C@H](Cc1ccc(O)cc1)NC(=O)[C@H](CO)NC(=O)[C@H](CO)NC(=O)[C@@H](NC(=O)[C@H](CC(=O)O)NC(=O)[C@H](CO)NC(=O)[C@@H](NC(=O)[C@H](Cc1ccccc1)NC(=O)[C@@H](NC(=O)CNC(=O)[C@H](CCC(=O)O)NC(=O)C(C)(C)NC(=O)[C@@H](N)Cc1c[nH]cn1)[C@@H](C)O)[C@@H](C)O)C(C)C)C(=O)N[C@@H](C)C(=O)N[C@@H](Cc1c[nH]c2ccccc12)C(=O)N[C@@H](CC(C)C)C(=O)N[C@H](C(=O)N[C@@H](CCCCN)C(=O)NCC(=O)NCC(=O)N1CCC[C@H]1C(=O)N[C@@H](CO)C(=O)N[C@@H](CO)C(=O)NCC(=O)N[C@@H](C)C(=O)N1CCC[C@H]1C(=O)N1CCC[C@H]1C(=O)N1CCC[C@H]1C(=O)N[C@@H](CO)C(=O)NC(C(N)=O)C(C)(C)SSCCNC(=O)OCC(=O)[C@@]1(O)[C@H](C)C[C@H]2[C@@H]3CCC4=CC(=O)C=C[C@]4(C)[C@@]3(F)[C@@H](O)C[C@@]21C)C(C)C (stereo partly drawn) [[Aib2, E16]GLP-1-CEX-Pen40(S—SCH2CH2NHCO—O-DEX)]
Glucocorticoid receptor
  EC50: 73.3 µM

## CC[C@H](C)[C@H](NC(=O)[C@H](Cc1ccccc1)NC(=O)[C@H](CCC(=O)O)NC(=O)[C@H](CCCCN)NC(=O)[C@H](C)NC(=O)[C@H](C)NC(=O)[C@H](CCC(N)=O)NC(=O)[C@H](CCC(=O)O)NC(=O)[C@H](CCC(=O)O)NC(=O)[C@H](CC(C)C)NC(=O)[C@H](Cc1ccc(O)cc1)NC(=O)[C@H](CO)NC(=O)[C@H](CO)NC(=O)[C@@H](NC(=O)[C@H](CC(=O)O)NC(=O)[C@H](CO)NC(=O)[C@@H](NC(=O)[C@H](Cc1ccccc1)NC(=O)[C@@H](NC(=O)CNC(=O)[C@H](CCC(=O)O)NC(=O)C(C)(C)NC(=O)[C@@H](N)Cc1c[nH]cn1)[C@@H](C)O)[C@@H](C)O)C(C)C)C(=O)N[C@@H](C)C(=O)N[C@@H](Cc1c[nH]c2ccccc12)C(=O)N[C@@H](CC(C)C)C(=O)N[C@H](C(=O)N[C@@H](CCCCN)C(=O)NCC(=O)NCC(=O)N1CCC[C@H]1C(=O)N[C@@H](CO)C(=O)N[C@@H](CO)C(=O)NCC(=O)N[C@@H](C)C(=O)N1CCC[C@H]1C(=O)N1CCC[C@H]1C(=O)N1CCC[C@H]1C(=O)N[C@@H](CO)C(=O)N[C@@H](CCCCNC(=O)CCC(=O)Oc1ccc2c(c1)CC[C@@H]1[C@@H]2CC[C@]2(C)[C@@H](OC(C)=O)CC[C@@H]12)C(N)=O)C(C)C [GLP-1/Estrogen(3-ester)]
[6]
  estrogen release in plasma: substantial estrogen release after 3 hours
  time to complete estrogen release in plasma: ≤ 6 h
